Among the test systems are CCRF-CEM; NCI/ADR-RES; NCI-H226; NCI-H522; A498; SN12C; LOX IMVI; T47D; EKVX; HCT-116; HT-29; OVCAR-4; HCT-15; SK-OV-3; ACHN; RXF 393; SW-620; SK-MEL-28; UO-31; K562.
Holding throughout (assay): NCI anticancer screen, dose series, 48 h

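Compound exposure: 48 hours, 5 concentrations, 96-well plates. The concentration for 50% growth inhibition is given as GI50.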 Calls of active or inactive are those of the source. Cut-off read from the data, not from the text of the source: active = GI50 up to about 1.1 µM and inactive = higher.

On to `OCCNCCN1CCN(CCCN2c3ccccc3Sc3ccc(C(F)(F)F)cc32)CC1`, for which the GI50 in the experiment with CCRF-CEM is > 100 µM (inactive); in the experiment with NCI/ADR-RES, 27.8 µM (inactive); with NCI-H226 it was 26.5 µM (inactive); with NCI-H522, 19.2 µM (inactive); in the experiment on A498 it was > 100 µM (inactive); with SN12C it was 18.2 µM (inactive). The GI50 is 14.5 µM (inactive) with LOX IMVI; 27.1 µM (inactive) in the experiment on T47D; 28.1 µM (inactive) with EKVX; 17.9 µM (inactive) in the experiment on HCT-116; 14 µM (inactive) in the experiment with HT-29; 25.8 µM (inactive) with OVCAR-4. The GI50 in the experiment with HCT-15 was 19.7 µM; in the experiment on SK-OV-3, 33.6 µM (inactive); with ACHN, 24.9 µM (inactive); in the experiment with RXF 393 it was 26.3 µM (inactive); in the experiment on SW-620, 19.2 µM (inactive); with SK-MEL-28, 23.6 µM (inactive).

For `O=C1O[C@H]2C3C4CCC(C4[C@@H]2I)[C@H]13` (some centres undefined), the GI50 in the experiment with CCRF-CEM, with NCI/ADR-RES, with UO-31, with K562, with NCI-H226 and in the experiment with NCI-H522 was > 100 µM (inactive) in each case. Also, the GI50 in the experiment with A498, in the experiment with SN12C, with LOX IMVI, with T47D, in the experiment on EKVX and with HCT-116 was > 100 µM (inactive) in each case. The GI50 in the experiment with HT-29 is > 100 µM (inactive); with OVCAR-4, > 100 µM (inactive); in the experiment on HCT-15 it was greater than 100 µM; with ACHN, > 100 µM (inactive); in the experiment on RXF 393, > 100 µM (inactive); with SW-620, > 100 µM (inactive). Besides, in the experiment on SK-MEL-28, the GI50 is > 100 µM (inactive).

For the compound `Cc1cc2ccccc2c[n+]1CC(O)C[n+]1cc2ccccc2cc1C`, the GI50 with NCI/ADR-RES, in the experiment on UO-31, with K562, in the experiment on NCI-H226, in the experiment with NCI-H522 and with A498 was > 100 µM (inactive) each time. In addition, the GI50 in the experiment with SN12C, in the experiment on LOX IMVI, in the experiment on T47D, in the experiment on EKVX, in the experiment with HCT-116 and in the experiment with HT-29 was > 100 µM (inactive) throughout. Also, the GI50 was > 100 µM (inactive) in the experiment on OVCAR-4; greater than 100 µM in the experiment on HCT-15; > 100 µM (inactive) in the experiment with ACHN; > 100 µM (inactive) with RXF 393; > 100 µM (inactive) with SW-620; > 100 µM (inactive) with SK-MEL-28.

Consider `CC(=O)c1ccc2c(c1)CC1(C2)Cc2cc3c(cc2C1=O)CCC3` (centres undefined), for which the GI50 in the experiment on CCRF-CEM was 13.3 µM (inactive); with NCI/ADR-RES, 12.2 µM (inactive); with UO-31 it was 26.1 µM (inactive); in the experiment with K562, 16.5 µM (inactive); in the experiment on NCI-H522, 22.7 µM (inactive); in the experiment with A498, 19.5 µM (inactive). Further, the GI50 was 16.7 µM (inactive) in the experiment on SN12C; 17.7 µM (inactive) in the experiment on LOX IMVI; 20.5 µM (inactive) with T47D; 25.2 µM (inactive) in the experiment with EKVX; 17.5 µM (inactive) with HCT-116; 15.7 µM (inactive) in the experiment with HT-29. Moreover, the GI50 is 15.1 µM (inactive) in the experiment on OVCAR-4; 29 µM in the experiment on HCT-15; 33.6 µM (inactive) in the experiment with SK-OV-3; 16.1 µM (inactive) in the experiment with ACHN; 20.8 µM (inactive) with RXF 393; 32.6 µM (inactive) with SW-620. Also, the GI50 in the experiment on SK-MEL-28 is 24.6 µM (inactive).

For `COc1ccc(/C=C2\NC(=S)N(/C=C3\C(=O)Oc4ccccc4C3=O)C2=O)cc1OC`, the GI50 in the experiment with CCRF-CEM was 45 µM (inactive); in the experiment with NCI/ADR-RES, > 100 µM (inactive); in the experiment on UO-31 it was 54.6 µM (inactive); in the experiment with K562, > 100 µM (inactive); with NCI-H226, > 100 µM (inactive); in the experiment with NCI-H522 it was 22.6 µM (inactive). Besides, the GI50 with A498 was 54 µM (inactive); with SN12C, > 100 µM (inactive); in the experiment with LOX IMVI, > 100 µM (inactive); in the experiment with T47D, > 100 µM (inactive); in the experiment on EKVX, 54.5 µM (inactive); in the experiment with HCT-116, > 100 µM (inactive). Also, the GI50 in the experiment on HT-29 was > 100 µM (inactive); with OVCAR-4, > 100 µM (inactive); in the experiment on HCT-15 it was 93.5 µM; in the experiment on SK-OV-3, > 100 µM (inactive); in the experiment on ACHN, 91 µM (inactive); with RXF 393, 77.6 µM (inactive). For the same compound, in the experiment on SW-620, the GI50 was > 100 µM (inactive).

As for `CN(N=O)N1C(=O)SCC(c2ccccc2)(c2ccccc2)C1=O`, the GI50 in the experiment on CCRF-CEM was 31.1 µM (inactive); in the experiment on NCI/ADR-RES, 34.4 µM (inactive); in the experiment with UO-31, 25.8 µM (inactive); with K562, 65.2 µM (inactive); in the experiment with NCI-H226, 14 µM (inactive); in the experiment with NCI-H522, 23.3 µM (inactive). Moreover, the GI50 in the experiment with A498 was > 100 µM (inactive); in the experiment on SN12C, 31.6 µM (inactive); in the experiment with LOX IMVI, 30 µM (inactive); in the experiment with T47D, 67.8 µM (inactive); with EKVX, 34.7 µM (inactive); with HCT-116 it was 40.4 µM (inactive). The GI50 in the experiment with HT-29 is 33.3 µM (inactive); in the experiment with HCT-15, 41.7 µM; with SK-OV-3, 25.2 µM (inactive); in the experiment on ACHN, 37.2 µM (inactive); with RXF 393 it was 22.3 µM (inactive); in the experiment with SW-620, 38.7 µM (inactive). In addition, in the experiment with SK-MEL-28, the GI50 was 36.8 µM (inactive).

`Cc1cccc(-c2nc3ccc([N+](=O)[O-])cc3c(=O)o2)c1`: the GI50 was 27.8 µM (inactive) in the experiment on CCRF-CEM; 26.1 µM (inactive) in the experiment with NCI/ADR-RES; 43.8 µM (inactive) with UO-31; 35.3 µM (inactive) in the experiment on K562; 71.6 µM (inactive) in the experiment with NCI-H226; 32.3 µM (inactive) in the experiment with NCI-H522. In addition, the GI50 in the experiment with A498 was 28.6 µM (inactive); with SN12C it was 72.3 µM (inactive); in the experiment with LOX IMVI, 26.2 µM (inactive); in the experiment with T47D it was 47.5 µM (inactive); with HCT-116, 42.8 µM (inactive); in the experiment on HT-29 it was 62.4 µM (inactive). Besides, the GI50 with OVCAR-4 was 68.9 µM (inactive); in the experiment on HCT-15 it was 74.3 µM; with SK-OV-3, > 100 µM (inactive); with ACHN it was 83.8 µM (inactive); in the experiment with RXF 393, > 100 µM (inactive); in the experiment with SW-620, 73.3 µM (inactive). The GI50 in the experiment on SK-MEL-28 was > 100 µM (inactive).

In the case of `CC1CC2(OC2C)C(=O)OC2CCN(C)C/C=C(/COC(=O)C1(C)O)C2=O` (centres undefined), the GI50 in the experiment with CCRF-CEM, in the experiment on NCI/ADR-RES, in the experiment on UO-31, in the experiment on K562, in the experiment on NCI-H522 and in the experiment with A498 was > 100 µM (inactive) throughout. Moreover, the GI50 in the experiment with SN12C, with LOX IMVI, in the experiment on T47D, with EKVX, in the experiment with HCT-116 and with HT-29 was > 100 µM (inactive) each time. In addition, the GI50 in the experiment with OVCAR-4 is > 100 µM (inactive); in the experiment with HCT-15 it was greater than 100 µM; with SK-OV-3, > 100 µM (inactive); with ACHN, > 100 µM (inactive); with RXF 393 it was > 100 µM (inactive); in the experiment on SW-620, > 100 µM (inactive). Besides, in the experiment with SK-MEL-28, the GI50 was > 100 µM (inactive).

For the compound `CC(=O)OCC1OC(n2c3c(c(-c4ccc(Cl)cc4)c(C#N)c2=S)CCCC3)C(OC(C)=O)C(OC(C)=O)C1OC(C)=O` (centres undefined), the GI50 with CCRF-CEM was 40.7 µM (inactive); in the experiment on NCI/ADR-RES, 46.5 µM (inactive); in the experiment with UO-31 it was 4.4 µM (inactive); in the experiment with K562 it was 44 µM (inactive); in the experiment with NCI-H226 it was 36.6 µM (inactive); in the experiment with NCI-H522 it was 40.7 µM (inactive). In addition, the GI50 with A498 is 35.2 µM (inactive); in the experiment on SN12C, 88.5 µM (inactive); in the experiment with LOX IMVI it was 44.9 µM (inactive); with T47D, 36.7 µM (inactive); in the experiment with HCT-116 it was 33.3 µM (inactive); in the experiment with HT-29, 57.5 µM (inactive). Also, the GI50 was 25.5 µM (inactive) in the experiment with OVCAR-4; 61.2 µM with HCT-15; 75.2 µM (inactive) in the experiment with SK-OV-3; 43.8 µM (inactive) in the experiment with ACHN; 23.5 µM (inactive) in the experiment with RXF 393; 32.4 µM (inactive) in the experiment with SK-MEL-28.

As for `CCOc1cc(C2SCC(=O)N2c2ccc3c(c2)Oc2c(Cl)c4c(c(Cl)c2=N3)Oc2cc(N3C(=O)CSC3c3ccc(O)c(OCC)c3)ccc2N=4)ccc1O` (centres undefined), the GI50 in the experiment with NCI/ADR-RES was 39 µM (inactive); with UO-31, 68.1 µM (inactive); in the experiment on K562, 27 µM (inactive); in the experiment on NCI-H226, 25.9 µM (inactive); with NCI-H522 it was 34 µM (inactive); with A498, 58.5 µM (inactive). Further, the GI50 in the experiment with LOX IMVI was 35.2 µM (inactive); in the experiment on T47D, 11 µM (inactive); in the experiment on EKVX, 37.2 µM (inactive); in the experiment on HCT-116, 18 µM (inactive); in the experiment on HT-29, 39.8 µM (inactive); with OVCAR-4, 46.3 µM (inactive). Also, the GI50 was 43.1 µM with HCT-15; 26.6 µM (inactive) with ACHN; 21.3 µM (inactive) in the experiment on RXF 393; 54.7 µM (inactive) with SW-620; 37.8 µM (inactive) with SK-MEL-28.

For the compound `Cc1ccc(/C=N/Nc2ccccn2)s1`, the GI50 in the experiment with CCRF-CEM was > 100 µM (inactive); in the experiment with NCI/ADR-RES it was > 40.6 µM (inactive); in the experiment with UO-31, 97.7 µM (inactive); with NCI-H226, > 56.5 µM (inactive); in the experiment with NCI-H522, 12.5 µM (inactive); in the experiment with A498, > 100 µM (inactive). Besides, the GI50 was > 47.4 µM (inactive) with SN12C; > 50.4 µM (inactive) in the experiment on LOX IMVI; > 57 µM (inactive) with T47D; > 72.8 µM (inactive) with EKVX; > 44.7 µM (inactive) in the experiment with HCT-116; > 67.8 µM (inactive) in the experiment on HT-29. Further, the GI50 in the experiment with OVCAR-4 is > 100 µM (inactive); in the experiment on HCT-15, greater than 72.6 µM; in the experiment on SK-OV-3, > 100 µM (inactive); in the experiment on ACHN, > 100 µM (inactive); in the experiment with RXF 393, > 100 µM (inactive); with SW-620 it was > 100 µM (inactive). For the same compound, in the experiment with SK-MEL-28, the GI50 is > 100 µM (inactive).
